# Measurements reported in patent publication US20070225242A1, “Method and composition for treating and preventing tumor metastasis in vivo” (The Board of Trustees of the Leland Stanford Junior …, priority 2005, published 2007).
# Columns and labels:
# MDA231 cells = assay: Pulmonary metastases from orthotopic MDA231 tumors with conditioned media injections after bone marrow transplantation; format: in vivo, mice
# Source text: We then determined whether elevated levels of circulating LOX from hypoxic tumor cells could affect BMDC recruitment and formation of the metastatic niche. We transplanted male bone marrow cells into female mice prior to orthotopically implanting Wt or LOX shRNA MDA231 cells, and used in situ hybridization with a Y-chromosome-specific probe to investigate BMDC recruitment. We allowed two weeks for primary tumor formation, and then supplemented the mice with different levels of circulating LOX for four weeks by daily intraperitoneal CM injections (FIG. 20B).
# Nude (nu/nu) 6-week old female mice were lethally irradiated (950 rads) and transplanted with 10^6 bone marrow cells isolated from the tibia and femur of nude (nu/nu) male mice 48 hr later. After 4 weeks, 10^7 MDA231 human breast cancer cells expressing either an shRNA targeting LOX or a scrambled control sequence were implanted orthotopically in the mammary fat pad.
# (§1) Conditioned media (CM) consisted of serum-free Modified Eagle's Medium cultured on MDA231 LOX shRNA or control cells incubated in normoxia (N; 21% O2) or hypoxia (H; 2% O2) for 24 h. CM was passed through a 0.22-μm filter and 300-μl were injected intraperitoneally daily into mice (Kaplan (2005), supra). When stated, beta-aminoproprionitrile was added to CM for an injection dose of 100 mg/kg. […]
# LOX = molecular target: T1, LOX (Homo sapiens, UniProt P28300); assay: LOX fluorescent activity assay, in vitro (conditioned medium from hypoxic cells); format: biochemical; settings: 500 μM BAPN, set as 0 fluorescence
# T1 construct: endogenous in cells; host or cells: Hypoxic cancer cells
# T1 sequence (P28300 169-417): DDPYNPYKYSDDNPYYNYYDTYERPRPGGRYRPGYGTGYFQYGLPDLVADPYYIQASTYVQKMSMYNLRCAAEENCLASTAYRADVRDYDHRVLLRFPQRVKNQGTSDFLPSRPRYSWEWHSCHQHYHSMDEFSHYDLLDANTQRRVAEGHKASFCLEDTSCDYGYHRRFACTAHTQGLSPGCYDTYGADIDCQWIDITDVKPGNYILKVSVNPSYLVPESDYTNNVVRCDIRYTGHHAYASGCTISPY
# Source text: LOX activity may be measured in a number of ways, using a soluble elastin or soluble collagen with labeled lysine as a substrate. Details of an activity assay are given in Royce et al., “Copper metabolism in mottled mouse mutants. The effect of copper therapy on lysyl oxidase activity in brindled (Mobr) mice,” Biochem J. 1982 Feb. 15; 202(2): 369-371. Especially preferred is a […] assay. One is described in Palamakumbura, et al. “A fluorometric assay for detection of lysyl oxidase enzyme activity in biological samples,” Anal Biochem. 2002 Jan. 15; 300(2):245-51. This method was used in the present work to assess LOX inhibition by BAPN and by anti-LOX antibody in cells in culture (using conditioned media) and in mice (using plasma), in a 96-well format.
# LOX activity assay. The original method is described in Folgelgren, et al. J. Biol. Chem. 280:24690-24697 (2005). For the in vivo data, terminal bleeds were taken at the end of the experiment described above from untreated (control) mice, 2 and 3 wk BAPN mice, and antibody-treated mice. […] For the in vitro data, 50 μl of conditioned phenol-red-free medium was taken from cells incubated for 24 h under conditions of hypoxia. Samples were incubated overnight at 37° C. with different concentrations of BAPN or with purified LOX antibody at a concentration equivalent to 20 mg kg^−1 dose. Again, 0=fluorescent reading for 500 μM BAPN.
# [1] = system: Caski human cervical cancer cells; assay: Tail vein metastasis and survival assay, Caski cells; format: in vivo, mice
# Method: Described briefly below are the results of experiments conducted with several different cell types. • 1. PANCREATIC: Panc-1 human pancreatic cells (see ATCC CRL-1469) expressing LOX shRNA were subjected to a tail vein metastasis assay comparing their metastatic growth to that of control Panc-1 cells. […] CERVICAL: Tail vein metastasis assays were performed using Caski human cervical cancer cells (See CRL-1550). After 4 weeks of growth, half the mice were treated with BAPN. […] COLON: HCT116 human colon cancer cells (see CCL-247) were transfected to express LOX shRNA and grown as subcutaneous tumors in nude mice, while comparing their growth with that of control cells.
# Caski Cervical cancer cells were injected into the tail vein of immune deficient mice and analyzed for survival differences. Metastases were allowed to form for two weeks before animals were treated with 100 mg/kg BAPN daily for up to 40 days. FIG. 14 is a Kaplan-Meyer plot showing survival of the animals. […] Upon discontinuation of BAPN treatment, animals started to die.
# lung and bone metastases = assay: Lung and bone metastases in treated mice (FIG. 17); format: in vivo; settings: FIGS. 17A-D
# Method: FIGS. 17A-C are pictures of lungs from mice which were treated and untreated with LOX shRNA, a LOX antibody or BAPN, showing the effect of LOX treatment on metastases in lung.
# FIGS. 17A-C are pictures of lungs from mice which were treated and untreated with LOX shRNA, the LOX antibody in Example 7 or BAPN, showing the effect of LOX treatment on metastases in lung.
# [2] = system: MDA231 human breast cancer cells; assay: Pulmonary foci after i.v. MDA231 cells with daily conditioned media injections; format: in vivo, mice; settings: i.v. tumor cells with daily CM injections
# Source text: To determine if the effect of increased circulating LOX levels on the growth of tumor cell foci at metastatic sites was independent of the initial steps of metastasis from a primary tumor (Steeg (2006) Nat. Med. 12:895-904), we intravenously injected MDA231 human breast cancer cells that expressed either LOX-targeting shRNA or a scrambled control sequence (Wt). We also provided circulating LOX by daily intraperitoneal injections of conditioned media (CM) derived from Wt or LOX shRNA cells exposed to hypoxic (H) or normoxic (N) conditions for 24 hours in vitro. […] CM from aerobic LOX shRNA cells had the lowest LOX activity (FIG. 19B).
# Local secretion of LOX by Wt tumor cells could sustain growth of Wt foci in the absence of exogenous circulating LOX, although larger foci were present when circulating LOX from hypoxic Wt CM was supplied (FIG. 19F-G). Since circulating LOX levels are highest in mice prior to metastasis formation from a primary tumor (FIG. 19A), we injected CM daily for 2 weeks prior to i.v. tumor cell injection (FIG. 19B).
# as §1, with “supra).” for “supra). When stated, beta-aminoproprionitrile was added to CM for an injection dose of 100 mg/kg.”
smiles,measurement,setting,value
"N#CCCN [BAPN, β-aminoproprionitrile]",pulmonary metastases of mice bearing Wt tumors,MDA231 cells; 6 wk post-orthotopic implantation,eliminated
same,increase in LOX shRNA tumor cell metastases in response to CM from hypoxic Wt cells,"MDA231 cells; BAPN added to CM, injection dose 100 mg/kg",could be prevented
same,LOX inhibition,LOX,complete LOX inhibition
same,animals survived,"[1]; 100 mg/kg BAPN daily for up to 40 days, started two weeks after injection",100%
same,disease course on renewed BAPN treatment,[1]; BAPN administered after 90 days to animals that already harbored metastases,became stabilized
same,lung foci (micro-metastases),[1]; BAPN after 4 weeks of growth,eliminated formation of any lung foci
same,lung and bone metastases,lung and bone metastases,either stabilized disease or regression of lung and bone metastases
same,pulmonary foci formation,[2],diminished foci formation
